Measurements: patent US20060135458A1, “Antiviral oligonucleotides” (priority 2002, published 2006)
In the oligonucleotide strings, read from the 5' end, every base follows the letter of its sugar. An asterisk marks phosphorothioate; unmarked linkages are phosphodiester. Other units and linkages are bracketed, terminal groups are in braces. A string of capitals states the bases alone. d = 2'-deoxy (DNA)

System: Bal 31
Parameters: key to the marks not given beside the values

Substance: REP 2029: A40 (polyA) PS-ON (DNA dA*dA*dA*dA*dA*dA*dA*dA*dA*dA*dA*dA*dA*dA*dA*dA*dA*dA*dA*dA*dA*dA*dA*dA*dA*dA*dA*dA*dA*dA*dA*dA*dA*dA*dA*dA*dA*dA*dA*dA)
- Nuclease resistance, Bal 31: ++++
